Measurements taken from ChEMBL document CHEMBL1201862, “PubChem BioAssay data set” (2004).
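All cell lines were grown in 96-well plates and treated with compound for 48 hours. The concentration for 50% growth inhibition is given as GI50.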 Calls of active or inactive are those of the source. No stated cut-off is given here; in the data, active = GI50 up to about 1.1 µM and inactive = higher.

How the values were obtained:
Assay in all cases: inhibition of tumour cell growth, NCI panel, 48 h
NCI-H226 = test system: NCI-H226
MDA-MB-231 = test system: MDA-MB-231
SK-MEL-2 = test system: SK-MEL-2
K562 = test system: K562
HOP-62 = test system: HOP-62
SNB-19 = test system: SNB-19
EKVX = test system: EKVX
MDA-N = test system: MDA-N
SNB-75 = test system: SNB-75
HT-29 = test system: HT-29
RXF 393 = test system: RXF 393
786-0 = test system: 786-0
SK-MEL-5 = test system: SK-MEL-5
OVCAR-5 = test system: OVCAR-5
OVCAR-4 = test system: OVCAR-4
UACC-257 = test system: UACC-257
SF-295 = test system: SF-295
SF-539 = test system: SF-539
OVCAR-3 = test system: OVCAR-3
SR = test system: SR

Row | SMILES | GI50 (NCI-H226) | GI50 (MDA-MB-231) | GI50 (SK-MEL-2) | GI50 (K562) | GI50 (HOP-62) | GI50 (SNB-19) | GI50 (EKVX) | GI50 (MDA-N) | GI50 (SNB-75) | GI50 (HT-29) | GI50 (RXF 393) | GI50 (786-0) | GI50 (SK-MEL-5) | GI50 (OVCAR-5) | GI50 (OVCAR-4) | GI50 (UACC-257) | GI50 (SF-295) | GI50 (SF-539) | GI50 (OVCAR-3) | GI50 (SR)
1 | NCCC(=O)N[C@H](Cc1cc(O)c(O)c(SCC(NC(=O)CC[C@H](N)C(=O)O)C(=O)NCC(=O)O)c1)C(=O)O (some centres not stated) | > 50 µM (inactive) | > 50 µM (inactive) | > 50 µM (inactive) | > 50 µM (inactive) | > 50 µM (inactive) | > 50 µM (inactive) | > 50 µM (inactive) | > 50 µM (inactive) | > 50 µM (inactive) | > 50 µM (inactive) | > 50 µM (inactive) | > 50 µM (inactive) | > 50 µM (inactive) | > 50 µM (inactive) | > 50 µM (inactive) | > 50 µM (inactive) | > 50 µM (inactive) | – | – | –
2 | COc1ccccc1OCC(=N/NC(=O)c1ccncc1)/N=C/c1cccnc1 | > 100 µM (inactive) | > 100 µM (inactive) | > 100 µM (inactive) | > 100 µM (inactive) | > 100 µM (inactive) | > 100 µM (inactive) | > 100 µM (inactive) | > 100 µM (inactive) | 36.5 µM (inactive) | > 100 µM (inactive) | > 100 µM (inactive) | > 100 µM (inactive) | – | > 100 µM (inactive) | > 100 µM (inactive) | > 100 µM (inactive) | > 100 µM (inactive) | > 100 µM (inactive) | > 100 µM (inactive) | –
3 | COc1cc2c(cc1OC)C1CN3CCCC3C(O)C1c1cc(OC)c(OC)cc1-2 (configuration not stated) | – | > 100 µM (inactive) | > 100 µM (inactive) | > 100 µM (inactive) | 40.2 µM (inactive) | > 100 µM (inactive) | > 100 µM (inactive) | > 100 µM (inactive) | – | > 100 µM (inactive) | 82.8 µM (inactive) | > 100 µM (inactive) | > 100 µM (inactive) | > 100 µM (inactive) | > 100 µM (inactive) | > 100 µM (inactive) | > 100 µM (inactive) | – | – | > 100 µM (inactive)
4 | O=C1NC(N2CCOCC2)=N/C1=C\c1ccccc1O | > 100 µM (inactive) | > 100 µM (inactive) | > 100 µM (inactive) | > 100 µM (inactive) | > 100 µM (inactive) | > 100 µM (inactive) | > 100 µM (inactive) | > 100 µM (inactive) | > 100 µM (inactive) | > 100 µM (inactive) | > 100 µM (inactive) | > 100 µM (inactive) | > 100 µM (inactive) | > 100 µM (inactive) | > 100 µM (inactive) | > 100 µM (inactive) | > 100 µM (inactive) | > 100 µM (inactive) | > 100 µM (inactive) | –
5 | CC(=O)CCC1(C(=O)OCC(C)C)CCCC1=O (configuration not stated) | > 100 µM (inactive) | > 100 µM (inactive) | > 100 µM (inactive) | > 100 µM (inactive) | > 100 µM (inactive) | > 100 µM (inactive) | > 100 µM (inactive) | > 100 µM (inactive) | > 100 µM (inactive) | > 100 µM (inactive) | > 100 µM (inactive) | > 100 µM (inactive) | > 100 µM (inactive) | > 100 µM (inactive) | > 100 µM (inactive) | > 100 µM (inactive) | > 100 µM (inactive) | > 100 µM (inactive) | 63.4 µM (inactive) | –
6 | O=C1NC(c2c(Cl)cccc2Cl)Nc2ccccc21 (configuration not stated) | 40.2 µM (inactive) | 30.5 µM (inactive) | 82.2 µM (inactive) | – | 81.7 µM (inactive) | 71.3 µM (inactive) | 56 µM (inactive) | 21.5 µM (inactive) | 2.89 µM (inactive) | 28.1 µM (inactive) | 70 µM (inactive) | 54.3 µM (inactive) | 27 µM (inactive) | 94.4 µM (inactive) | > 100 µM (inactive) | > 100 µM (inactive) | 47.3 µM (inactive) | 47.1 µM (inactive) | 50.1 µM (inactive) | –
7 | N#Cc1c2c(c(N)oc1=O)C(c1ccccc1)CC(=O)N2 (configuration not stated) | > 100 µM (inactive) | > 100 µM (inactive) | > 100 µM (inactive) | > 100 µM (inactive) | > 100 µM (inactive) | > 100 µM (inactive) | > 100 µM (inactive) | > 100 µM (inactive) | > 100 µM (inactive) | > 100 µM (inactive) | > 100 µM (inactive) | > 100 µM (inactive) | > 100 µM (inactive) | > 100 µM (inactive) | > 100 µM (inactive) | > 100 µM (inactive) | > 100 µM (inactive) | > 100 µM (inactive) | > 100 µM (inactive) | –
8 | Nc1nc(Cl)c(N)c(NCC2(CO)CCC(CCc3ccccc3)C2)n1 (configuration not stated) | 18.2 µM (inactive) | 17 µM (inactive) | 15.7 µM (inactive) | 0.183 µM (active) | 17 µM (inactive) | 25.7 µM (inactive) | 3.15 µM (inactive) | 15.2 µM (inactive) | 25.4 µM (inactive) | 13.3 µM (inactive) | 17.4 µM (inactive) | 20.4 µM (inactive) | 0.033 µM (active) | 20.9 µM (inactive) | 17.3 µM (inactive) | 0.461 µM (active) | 10.6 µM (inactive) | 15.5 µM (inactive) | 18.7 µM (inactive) | –
9 | NNC(=O)c1nnn(N)c1S | > 100 µM (inactive) | 45.4 µM (inactive) | > 100 µM (inactive) | 36.8 µM (inactive) | > 100 µM (inactive) | – | > 100 µM (inactive) | > 100 µM (inactive) | > 100 µM (inactive) | > 100 µM (inactive) | > 100 µM (inactive) | 93.8 µM (inactive) | > 100 µM (inactive) | > 100 µM (inactive) | > 100 µM (inactive) | > 100 µM (inactive) | > 100 µM (inactive) | > 100 µM (inactive) | > 100 µM (inactive) | –
10 | COc1cc([N+](=O)[O-])c(OC)c2c(Nc3ccc(S(=O)(=O)O)c4cc(S(=O)(=O)O)cc(S(=O)(=O)O)c34)cc(C)nc12 | > 100 µM (inactive) | > 100 µM (inactive) | > 100 µM (inactive) | – | > 100 µM (inactive) | – | > 100 µM (inactive) | > 100 µM (inactive) | > 100 µM (inactive) | > 100 µM (inactive) | > 100 µM (inactive) | > 100 µM (inactive) | > 100 µM (inactive) | > 100 µM (inactive) | – | > 100 µM (inactive) | – | > 100 µM (inactive) | > 100 µM (inactive) | –
11 | NCCNCCCCCCNC(=O)c1cccc2cc3ccccc3nc12 | 1.95 µM (inactive) | 2.34 µM (inactive) | 2.87 µM (inactive) | 2.06 µM (inactive) | 2 µM (inactive) | 2.67 µM (inactive) | 8.59 µM (inactive) | 2.7 µM (inactive) | 3.94 µM (inactive) | 1.59 µM (inactive) | 3.95 µM (inactive) | 1.36 µM (inactive) | 3.61 µM (inactive) | 4.02 µM (inactive) | 2.02 µM (inactive) | 6.1 µM (inactive) | 3.6 µM (inactive) | 1.93 µM (inactive) | 2.51 µM (inactive) | –
